Where “and” joins values, the source holds several entries; their conditions need not be identical. Equal values may be shown once. Read-outs that look alike come from different tables or passages of the source.
Columns and labels:
mMOR [1] = biological target: T1, mMOR (Mus musculus, UniProt P42866); experiment: Radioligand competition binding ([125I]IBNtxA), CHO membranes, mMOR; settings: vs 125IBNtxA (0.1 nM), mean ± SEM
T1 construct: expressed in transfected cells

[2] = biological target: T2, rat kappa opioid receptor (rKOR) (Rattus norvegicus, UniProt P34975); experiment: BRET assay, G-protein activation, rKOR; assay type: cell-based
T2 construct: expressed in transfected cells; host or cells: HEK-293T, transient (PEI), with BRET sensor cDNAs

mKOR [3] = biological target: T3, mKOR (Mus musculus, UniProt P33534); experiment: Radioligand competition binding ([125I]IBNtxA), CHO membranes, mKOR; settings: vs 125IBNtxA (0.1 nM), mean ± SEM
T3 construct: expressed in transfected cells

mKOR [4] = biological target: T3, mKOR; experiment: [35S]GTPγS functional assay, mKOR; assay type: biochemical; settings: [35S]GTPγS
[5] = biological target: T4, mouse mu opioid receptor (mMOR) (Mus musculus, UniProt P42866); experiment: cell-based; assay type: cell-based
T4 construct: expressed in transfected cells; host or cells: HEK-293T, transient (PEI), with BRET sensor cDNAs

hDOR [6] = biological target: T5, hDOR (Homo sapiens, UniProt P41143); experiment: Tango β-arrestin recruitment assay, hDOR; assay type: cell-based; design: expressed in transfected cells; host or cells: HTLA cells expressing TEV fused-beta-Arrestin2; settings: hDOR, Tango
[7] = biological target: T6, mouse delta opioid receptor (mDOR) (Mus musculus, UniProt P32300); experiment: BRET assay, G-protein activation, mDOR; assay type: cell-based; settings: mDOR, BRET
T6 construct: expressed in transfected cells; host or cells: HEK-293T, transient (PEI), with BRET sensor cDNAs

[8] = biological target: T4, mouse mu opioid receptor (mMOR); experiment: cell-based; assay type: cell-based; remark: listed apart in the source
mMOR [9] = biological target: T1, mMOR; experiment: [35S]GTPγS functional assay, mMOR; assay type: biochemical; settings: [35S]GTPγS
hDOR [10] = biological target: T5, hDOR; experiment: cAMP inhibition assay, hDOR; assay type: cell-based; design: expressed in transfected cells; settings: hDOR
hMOR [11] = biological target: T7, hMOR (Homo sapiens, UniProt P35372); experiment: cell-based; assay type: cell-based
T7 construct: expressed in transfected cells; host or cells: HEK 293T (ATCC CRL-11268), transient

mDOR [12] = biological target: T8, mDOR (Mus musculus, UniProt P32300); experiment: [35S]GTPγS functional assay, mDOR; assay type: biochemical; settings: [35S]GTPγS
T8 construct: expressed in transfected cells

[13] = biological target: T2, rat kappa opioid receptor (rKOR); experiment: BRET assay, arrestin recruitment, rKOR; assay type: cell-based; settings: BRET
[14] = biological target: T6, mouse delta opioid receptor (mDOR); experiment: BRET assay, arrestin recruitment, mDOR; assay type: cell-based; settings: mDOR, BRET
hKOR [15] = biological target: T9, hKOR (Homo sapiens, UniProt P41145); experiment: cAMP inhibition assay (GloSensor, HEK 293T), hKOR; assay type: cell-based
T9 construct: expressed in transfected cells; host or cells: HEK 293T (ATCC CRL-11268), transient

hKOR [16] = biological target: T9, hKOR; experiment: Tango β-arrestin recruitment assay, hKOR; assay type: cell-based; settings: Tango
mDOR [17] = biological target: T8, mDOR; experiment: Radioligand competition binding ([125I]IBNtxA), CHO membranes, mDOR; settings: vs 125IBNtxA (0.1 nM), CHO membranes, mean ± SEM
hMOR [18] = biological target: T7, hMOR; experiment: Tango β-arrestin recruitment assay, hMOR; assay type: cell-based; settings: Tango

## O=C(N[C@@H]1C=CC2[C@H]3Cc4ccc(O)c5c4[C@@]2(CCN3CC2CC2)[C@H]1O5)c1cccc(I)c1 (stereo partly shown) [MP1104, reference compound]
mMOR [1]
  Ki: 21 pM
[2]; BRET
  Gi pEC50±SEM rKOR: 10.14±0.04
[2]; BRET assays, against U50,488H as control
  Bias factor toward G-protein, rKOR: 0.23
[2]; BRET, normalized to Emax of U50,488H
  Gi Emax rKOR: 93±1
[2]; BRET, read-out: Gi EC50 rKOR
  EC50: 73 pM
mKOR [3]
  Ki: 6.4 pM
mKOR [4]; nM ± SEM
  EC50: 0.027 ± 0.002 nM
mKOR [4]; relative to U50,488H
  mKOR Emax: 104 ± 2%
[5]
  Arrestin Emax mMOR: 53±1.6
  Arrestin pEC50±SEM mMOR: 9.55±0.12
[5]; read-out: Arrestin EC50 mMOR
  EC50: 285 pM
hDOR [6]
  Arrestin recruitment pEC50 ± SEM: 8.4 ± 0.06
  EC50: 3730 pM
hDOR [6]; normalized to DPDPE or DADLE
  Arrestin recruitment Emax % ± SEM: 189 ± 5.5%
[7]
  EC50: 1400 pM
  G-Protein activation pEC50 ± SEM: 8.9 ± 0.06
[7]; normalized to DPDPE
  G-Protein activation Emax % ± SEM: 91 ± 1.7%
[8]
  Bias factor toward G-protein, mMOR: 0.1
  Gi Emax mMOR: 62±2
  Gi pEC50±SEM mMOR: 9.2±0.11
[8]; read-out: Gi EC50 mMOR
  EC50: 660 pM
mMOR [9]; nM ± SEM
  EC50: 0.21 ± 0.03 nM
mMOR [9]; relative to DAMGO
  mMOR Emax: 103 ± 2%
hDOR [10]
  EC50: 400 pM
  cAMP inhibition pEC50 ± SEM: 9.4 ± 0.04
hDOR [10]; normalized to DPDPE or DADLE
  cAMP inhibition Emax % ± SEM: 99 ± 1.1%
hMOR [11]
  Bias factor toward G protein, hMOR: 0.57 and 0.6
  Gi Emax hMOR: 94±1
  Gi pEC50±SEM hMOR: 10.13±0.05
hMOR [11]; read-out: Gi EC50 hMOR
  EC50: 74 pM
mDOR [12]; nM ± SEM
  EC50: 0.41 ± 0.11 nM
mDOR [12]; relative to DPDPE
  mDOR Emax: 88 ± 0%
[13]
  Arrestin pEC50±SEM rKOR: 8.94±0.07
  EC50: 1140 pM
[13]; normalized to Emax of U50,488H
  Arrestin Emax rKOR: 89±2.6
[14]
  Arrestin recruitment pEC50 ± SEM: 7.6 ± 0.11
  EC50: 26000 pM
[14]; normalized to DPDPE
  Arrestin recruitment Emax % ± SEM: 40 ± 1.7%
hKOR [15]; cAMP inhibition
  Gi pEC50±SEM hKOR: 11.74±0.04
hKOR [15]; cAMP inhibition vs Tango, against U50,488H as control
  Bias factor toward G protein, hKOR: 0.18 and 0.2
hKOR [15]; cAMP inhibition, normalized to Emax of U50,488H
  Gi Emax hKOR: 107±1
hKOR [15]; cAMP inhibition, read-out: Gi EC50 hKOR
  EC50: 1.84 pM
hKOR [16]; WT-hKOR
  Arrestin pEC50±SEM hKOR: 10.4±0.06
  EC50: 39.4 pM
hKOR [16]; normalized to Emax of U50,488H
  Arrestin Emax hKOR: 117±2
mDOR [17]
  Ki: 80 ± 10 pM
hMOR [18]
  Arrestin pEC50±SEM hMOR: 9.24±0.08
  EC50: 573 pM
hMOR [18]; normalized to Emax of DAMGO
  Arrestin Emax hMOR: 90±2.28

Reference: patent US11613547B2 (priority 2019, dated 2023)
